Values joined by “and” are separate entries in the source; they are usually repeats but may differ in a detail not shown here. Equal entries are not always repeated.
Assays:
[1] = spectral region about 640 to about 940 nanometers; cited from earlier work
[2] = Absorption peaks of photosensitizers; type: physicochemical; conditions: relevant absorption peaks, Table 1
Source text: FIG. 1 is a graph showing the absorption bands of protoporphyrin IX, which is produced as a result of 5-aminolevulinic acid metabolism in a mammal. Protoporphyrin IX has an absorption band located in the blue spectral region (the 410 nanometer Soret band) and other weaker absorption bands in the 500 to 650 nanometer visible region, namely at about 506 nanometers, 546 nanometers, and 578 nanometers. […] Table 1 lists several photosensitizers useful in the practice of the invention, and identifies relevant absorption peaks for each of the listed photosensitizers. While the 460 nanometer to 620 nanometer wavelength range includes the relatively strong absorption peaks of oxyhemoglobin and deoxyhemoglobin, these blood components have other absorption peaks (although of lower relative maxima) at longer wavelengths. For example, deoxyhemoglobin has a weaker absorption peak at about 757 nanometers, and oxyhemoglobin has a weaker absorption peak at about 920 nanometers. Pulsed light sources in the red and near infrared (up to approximately 940 nanometers), for example, the flash lamp pumped alexandrite laser (755 nanometer), or semiconductor diode lasers, for example, gallium arsenide laser (810 nanometer) are capable of selective photothermolysis of blood vessels, including the microvessels in psoriatic lesions. Accordingly, under certain circumstances, it may be advantageous to use a source of pulsed or scanned irradiation having a wavelength in the range from about 640 nanometers to about 940 nanometers to perform combined selective photothermolysis of blood vessels and photodynamic therapy (using the appropriate photosensitizer) in the target region. Useful photosensitizers that absorb light in this spectral region include, for example, Pd(II)-octabutoxyphthalocyanine (732 nm, 838 nm), Si(IV)-napthalocyanine (773 nm)(Jori (1996) J. PHOTOCHEM. PHOTOBIOL. B 87-93), and 5,15-etiobacteriopurpurin (768 nm, 843 nm) (U.S. Pat. No. 6,376,483 B1).

Molecule	wavelength of light absorbed [1]	Wavelength of absorption peaks [2]
Pd(II)-octabutoxyphthalocyanine	732 nm and 838 nm	–
O=C([O-])c1c(Cl)c(Cl)c(Cl)c(Cl)c1-c1c2cc(I)c(=O)c(I)c-2oc2c(I)c([O-])c(I)cc12.[Na+].[Na+] [rose bengal]	–	548 nm
benzoporphyrin derivative mono-acid	–	˜585 nm
nickel 5,10-bis-acrylate etioporphyrin I	–	580 nm
5,15-etiobacteriopurpurin	768 nm and 843 nm	–
Si(IV)-napthalocyanine	773 nm	–
